Among the data in ChEMBL document CHEMBL5291721, “A preclinical secondary pharmacology resource illuminates target-adverse drug reaction associations of marketed drugs” (Nat Commun, 2023) are AC50 values, retold here.

Among the targets are Vasopressin V1a receptor (Homo sapiens, UniProt P37288); Melanocortin receptor 3 (Homo sapiens, UniProt P41968); Vasopressin V2 receptor (Homo sapiens, UniProt P30518); D(3) dopamine receptor (Homo sapiens, UniProt P35462); Motilin receptor (Homo sapiens, UniProt O43193).
Assay [1] addresses Voltage-gated inwardly rectifying potassium channel KCNH2 (Homo sapiens, UniProt Q12809). The format is functional. Conditions: read-out: AC50.
The target in assay [2] is Muscarinic acetylcholine receptor M3 (Homo sapiens, UniProt P20309).
For assay [3], the target named is T1, Alpha-2C adrenergic receptor (Homo sapiens, UniProt P18825).
T1 sequence (P18825 whole entry): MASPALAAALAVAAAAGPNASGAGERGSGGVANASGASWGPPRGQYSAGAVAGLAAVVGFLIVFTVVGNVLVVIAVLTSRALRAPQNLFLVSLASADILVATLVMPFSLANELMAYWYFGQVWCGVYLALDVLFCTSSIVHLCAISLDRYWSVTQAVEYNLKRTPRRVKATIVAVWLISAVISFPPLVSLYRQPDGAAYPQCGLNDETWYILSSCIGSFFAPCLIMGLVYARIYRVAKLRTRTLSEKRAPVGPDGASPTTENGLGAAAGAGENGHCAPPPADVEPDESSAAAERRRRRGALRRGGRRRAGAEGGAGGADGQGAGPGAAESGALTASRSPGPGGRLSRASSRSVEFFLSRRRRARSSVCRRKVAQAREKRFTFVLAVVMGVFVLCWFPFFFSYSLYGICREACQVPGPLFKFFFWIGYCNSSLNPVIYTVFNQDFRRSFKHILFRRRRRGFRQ
It is filed as functional.

The target of the next assay is D(1A) dopamine receptor (Homo sapiens, UniProt P21728). The format is functional, cell-based.
Assay [4] concerns the target Sodium-dependent dopamine transporter (Homo sapiens, UniProt Q01959).
The target in a further assay is T2, Adenosine receptor A3 (Homo sapiens, UniProt P0DMS8).
T2 sequence (P0DMS8 whole entry): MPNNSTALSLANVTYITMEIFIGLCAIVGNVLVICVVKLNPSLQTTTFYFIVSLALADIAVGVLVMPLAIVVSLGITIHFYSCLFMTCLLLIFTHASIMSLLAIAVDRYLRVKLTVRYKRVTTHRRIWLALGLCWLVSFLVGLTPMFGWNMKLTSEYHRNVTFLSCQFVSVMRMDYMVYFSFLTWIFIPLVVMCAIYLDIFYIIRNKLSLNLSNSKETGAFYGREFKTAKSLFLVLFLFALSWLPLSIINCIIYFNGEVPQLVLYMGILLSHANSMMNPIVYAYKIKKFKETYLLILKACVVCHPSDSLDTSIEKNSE

Assay [5] deals with 3',5'-cyclic-AMP phosphodiesterase 4D (Homo sapiens, UniProt Q08499). It is filed as functional.
Assay [6] addresses T3, Neuropeptide Y receptor type 1 (Homo sapiens, UniProt P25929).
T3 sequence (P25929 whole entry): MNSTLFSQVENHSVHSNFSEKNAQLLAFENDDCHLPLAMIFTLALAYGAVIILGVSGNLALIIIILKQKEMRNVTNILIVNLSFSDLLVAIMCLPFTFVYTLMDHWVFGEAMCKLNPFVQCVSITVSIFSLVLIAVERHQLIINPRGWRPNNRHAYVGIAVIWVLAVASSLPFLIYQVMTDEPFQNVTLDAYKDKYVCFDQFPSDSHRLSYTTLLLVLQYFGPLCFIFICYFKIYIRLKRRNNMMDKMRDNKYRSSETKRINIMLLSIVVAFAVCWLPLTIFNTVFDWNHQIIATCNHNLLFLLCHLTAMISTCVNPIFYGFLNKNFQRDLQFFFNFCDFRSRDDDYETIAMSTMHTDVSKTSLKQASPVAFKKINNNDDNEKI

Assay [7] has as its target cGMP-inhibited 3',5'-cyclic phosphodiesterase 3A (Homo sapiens, UniProt Q14432). It is filed as functional.
Assay [8] concerns the target T4, Alpha-2B adrenergic receptor (Homo sapiens, UniProt P18089).
T4 sequence (P18089 whole entry): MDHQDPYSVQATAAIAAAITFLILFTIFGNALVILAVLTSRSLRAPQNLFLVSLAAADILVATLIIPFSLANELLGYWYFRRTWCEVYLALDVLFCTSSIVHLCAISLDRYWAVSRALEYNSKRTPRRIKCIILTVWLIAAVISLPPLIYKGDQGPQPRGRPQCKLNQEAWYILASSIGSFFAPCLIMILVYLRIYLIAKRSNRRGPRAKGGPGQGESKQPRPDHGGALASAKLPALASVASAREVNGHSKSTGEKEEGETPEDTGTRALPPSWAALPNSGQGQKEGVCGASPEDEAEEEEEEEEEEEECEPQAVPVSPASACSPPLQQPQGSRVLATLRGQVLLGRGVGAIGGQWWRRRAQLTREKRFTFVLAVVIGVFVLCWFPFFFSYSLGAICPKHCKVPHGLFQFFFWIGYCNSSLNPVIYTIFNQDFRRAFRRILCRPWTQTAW

In a further assay the target is Cannabinoid receptor 1 (Homo sapiens, UniProt P21554). It is filed as functional, cell-based.
The target of assay [9] is T5, Alpha-2A adrenergic receptor (Homo sapiens, UniProt P08913).
T5 sequence (P08913 whole entry): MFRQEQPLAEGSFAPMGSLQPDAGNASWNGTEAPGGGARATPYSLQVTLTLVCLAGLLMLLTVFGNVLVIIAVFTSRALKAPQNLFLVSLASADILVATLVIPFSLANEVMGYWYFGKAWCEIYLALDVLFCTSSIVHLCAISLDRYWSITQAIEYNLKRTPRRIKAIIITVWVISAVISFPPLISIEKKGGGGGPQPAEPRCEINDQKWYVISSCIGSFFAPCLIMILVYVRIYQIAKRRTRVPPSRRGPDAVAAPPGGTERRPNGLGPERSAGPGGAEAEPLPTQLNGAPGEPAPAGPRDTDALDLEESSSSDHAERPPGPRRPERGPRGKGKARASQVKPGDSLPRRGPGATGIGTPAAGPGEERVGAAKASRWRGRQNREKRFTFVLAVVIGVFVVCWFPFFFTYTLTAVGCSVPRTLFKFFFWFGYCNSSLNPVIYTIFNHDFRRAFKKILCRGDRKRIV
It is filed as functional, cell-based.

Assay [10] addresses Sodium-dependent serotonin transporter (Homo sapiens, UniProt P31645).
Also: assay procedure not described here.

Chain of 3',5'-cyclic-AMP phosphodiesterase 4D (Q08499 whole entry): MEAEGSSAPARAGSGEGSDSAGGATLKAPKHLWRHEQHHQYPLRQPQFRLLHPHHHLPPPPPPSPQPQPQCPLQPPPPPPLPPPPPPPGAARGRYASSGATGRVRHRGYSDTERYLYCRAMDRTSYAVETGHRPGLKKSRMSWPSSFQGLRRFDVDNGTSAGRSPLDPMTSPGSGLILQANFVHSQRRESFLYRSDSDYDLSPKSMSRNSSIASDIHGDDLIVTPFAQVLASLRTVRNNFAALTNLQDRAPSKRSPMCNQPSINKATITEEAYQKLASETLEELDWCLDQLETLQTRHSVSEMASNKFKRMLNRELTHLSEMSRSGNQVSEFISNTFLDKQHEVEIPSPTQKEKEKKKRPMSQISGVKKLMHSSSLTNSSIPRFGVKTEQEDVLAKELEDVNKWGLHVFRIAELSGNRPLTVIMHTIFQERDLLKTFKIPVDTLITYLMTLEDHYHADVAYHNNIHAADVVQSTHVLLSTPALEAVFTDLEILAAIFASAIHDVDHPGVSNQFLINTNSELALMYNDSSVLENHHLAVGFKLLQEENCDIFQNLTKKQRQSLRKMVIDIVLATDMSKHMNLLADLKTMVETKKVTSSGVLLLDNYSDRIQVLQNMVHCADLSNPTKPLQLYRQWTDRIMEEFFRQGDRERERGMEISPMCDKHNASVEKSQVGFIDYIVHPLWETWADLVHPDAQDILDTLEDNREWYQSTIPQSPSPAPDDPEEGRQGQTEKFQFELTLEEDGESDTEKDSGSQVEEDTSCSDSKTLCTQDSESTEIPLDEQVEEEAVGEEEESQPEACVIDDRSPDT
Chain of Voltage-gated inwardly rectifying potassium channel KCNH2 (Q12809 whole entry): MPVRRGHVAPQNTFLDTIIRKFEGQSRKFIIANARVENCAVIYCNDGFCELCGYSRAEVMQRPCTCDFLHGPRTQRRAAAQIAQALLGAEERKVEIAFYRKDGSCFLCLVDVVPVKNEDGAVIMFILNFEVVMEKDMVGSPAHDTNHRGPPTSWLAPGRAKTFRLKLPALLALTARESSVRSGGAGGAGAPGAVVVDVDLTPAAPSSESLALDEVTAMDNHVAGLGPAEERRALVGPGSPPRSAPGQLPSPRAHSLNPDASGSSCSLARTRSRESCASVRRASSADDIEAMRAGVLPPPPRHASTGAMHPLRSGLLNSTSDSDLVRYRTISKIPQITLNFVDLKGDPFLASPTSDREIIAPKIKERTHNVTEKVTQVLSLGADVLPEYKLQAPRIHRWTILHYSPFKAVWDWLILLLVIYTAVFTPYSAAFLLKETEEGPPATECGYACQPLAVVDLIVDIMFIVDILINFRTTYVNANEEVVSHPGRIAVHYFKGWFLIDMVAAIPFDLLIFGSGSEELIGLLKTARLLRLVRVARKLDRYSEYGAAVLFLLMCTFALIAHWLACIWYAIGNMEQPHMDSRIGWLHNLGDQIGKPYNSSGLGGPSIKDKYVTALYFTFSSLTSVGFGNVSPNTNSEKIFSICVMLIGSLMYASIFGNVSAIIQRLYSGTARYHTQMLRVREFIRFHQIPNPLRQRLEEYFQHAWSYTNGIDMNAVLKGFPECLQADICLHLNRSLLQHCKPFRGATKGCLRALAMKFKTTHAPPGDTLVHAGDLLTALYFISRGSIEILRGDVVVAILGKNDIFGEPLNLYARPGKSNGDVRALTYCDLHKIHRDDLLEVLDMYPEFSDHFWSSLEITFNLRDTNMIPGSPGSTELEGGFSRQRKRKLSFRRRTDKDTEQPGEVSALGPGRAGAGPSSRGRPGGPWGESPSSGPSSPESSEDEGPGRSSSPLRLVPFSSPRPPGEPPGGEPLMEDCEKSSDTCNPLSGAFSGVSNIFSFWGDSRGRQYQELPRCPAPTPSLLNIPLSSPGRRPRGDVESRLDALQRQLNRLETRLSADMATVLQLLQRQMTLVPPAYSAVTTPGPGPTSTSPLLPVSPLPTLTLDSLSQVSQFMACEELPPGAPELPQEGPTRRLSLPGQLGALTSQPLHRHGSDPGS
Chain of Vasopressin V1a receptor (P37288 whole entry): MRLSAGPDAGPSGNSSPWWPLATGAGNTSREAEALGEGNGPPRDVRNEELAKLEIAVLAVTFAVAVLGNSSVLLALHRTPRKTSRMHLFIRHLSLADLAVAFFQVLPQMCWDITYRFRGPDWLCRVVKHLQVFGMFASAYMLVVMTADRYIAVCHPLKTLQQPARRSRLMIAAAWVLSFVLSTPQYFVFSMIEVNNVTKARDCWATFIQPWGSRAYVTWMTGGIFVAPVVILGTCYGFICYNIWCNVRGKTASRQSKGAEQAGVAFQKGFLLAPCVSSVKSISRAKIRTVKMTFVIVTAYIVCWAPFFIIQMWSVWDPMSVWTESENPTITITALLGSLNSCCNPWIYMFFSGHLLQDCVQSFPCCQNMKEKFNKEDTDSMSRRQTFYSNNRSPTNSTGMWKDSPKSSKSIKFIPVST
Chain of D(3) dopamine receptor (P35462 whole entry): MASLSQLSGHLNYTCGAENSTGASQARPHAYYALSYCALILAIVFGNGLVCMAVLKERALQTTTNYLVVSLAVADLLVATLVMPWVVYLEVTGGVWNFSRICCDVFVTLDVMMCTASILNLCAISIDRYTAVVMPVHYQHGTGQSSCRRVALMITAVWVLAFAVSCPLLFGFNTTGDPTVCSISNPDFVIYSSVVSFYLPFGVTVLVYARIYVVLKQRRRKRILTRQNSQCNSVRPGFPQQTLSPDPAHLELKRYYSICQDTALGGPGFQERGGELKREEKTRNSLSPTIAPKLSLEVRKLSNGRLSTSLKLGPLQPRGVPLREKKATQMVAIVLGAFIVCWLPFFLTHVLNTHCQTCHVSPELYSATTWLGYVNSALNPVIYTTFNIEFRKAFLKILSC
Chain of Melanocortin receptor 3 (P41968 whole entry): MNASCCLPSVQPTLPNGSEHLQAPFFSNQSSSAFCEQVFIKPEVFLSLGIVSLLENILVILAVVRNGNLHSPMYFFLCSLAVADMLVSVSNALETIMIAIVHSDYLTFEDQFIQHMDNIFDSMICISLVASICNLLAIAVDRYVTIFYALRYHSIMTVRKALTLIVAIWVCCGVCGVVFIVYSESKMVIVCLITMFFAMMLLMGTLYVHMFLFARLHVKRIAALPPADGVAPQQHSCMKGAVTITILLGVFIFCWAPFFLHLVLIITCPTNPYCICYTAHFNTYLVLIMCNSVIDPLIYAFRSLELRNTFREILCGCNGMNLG
Chain of Sodium-dependent dopamine transporter (Q01959 whole entry): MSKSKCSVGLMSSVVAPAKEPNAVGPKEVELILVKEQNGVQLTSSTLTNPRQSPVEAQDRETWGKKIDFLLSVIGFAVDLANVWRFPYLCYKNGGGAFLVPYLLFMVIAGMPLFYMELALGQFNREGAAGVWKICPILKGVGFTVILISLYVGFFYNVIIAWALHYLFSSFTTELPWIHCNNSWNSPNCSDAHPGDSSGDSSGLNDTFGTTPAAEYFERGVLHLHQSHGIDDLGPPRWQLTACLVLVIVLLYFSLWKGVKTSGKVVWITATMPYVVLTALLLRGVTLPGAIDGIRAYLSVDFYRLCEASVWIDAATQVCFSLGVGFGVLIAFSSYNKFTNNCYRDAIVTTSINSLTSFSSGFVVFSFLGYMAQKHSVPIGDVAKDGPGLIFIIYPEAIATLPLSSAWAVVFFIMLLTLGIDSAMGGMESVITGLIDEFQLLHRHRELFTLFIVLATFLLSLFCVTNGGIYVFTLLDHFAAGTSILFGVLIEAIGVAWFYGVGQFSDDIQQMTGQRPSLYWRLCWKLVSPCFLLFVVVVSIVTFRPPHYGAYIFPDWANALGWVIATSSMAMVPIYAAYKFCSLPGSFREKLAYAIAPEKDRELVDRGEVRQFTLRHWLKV
Chain of Vasopressin V2 receptor (P30518 whole entry): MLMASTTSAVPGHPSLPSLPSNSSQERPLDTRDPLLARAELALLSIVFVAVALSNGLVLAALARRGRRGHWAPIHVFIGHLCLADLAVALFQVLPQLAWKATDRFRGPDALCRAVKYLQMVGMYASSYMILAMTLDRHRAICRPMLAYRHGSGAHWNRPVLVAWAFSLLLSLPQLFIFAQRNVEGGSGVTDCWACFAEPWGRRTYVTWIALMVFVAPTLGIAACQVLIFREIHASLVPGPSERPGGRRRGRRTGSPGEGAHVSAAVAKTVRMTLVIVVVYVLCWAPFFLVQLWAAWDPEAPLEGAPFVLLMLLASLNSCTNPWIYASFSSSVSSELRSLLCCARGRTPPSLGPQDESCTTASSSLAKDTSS
Chain of D(1A) dopamine receptor (P21728 whole entry): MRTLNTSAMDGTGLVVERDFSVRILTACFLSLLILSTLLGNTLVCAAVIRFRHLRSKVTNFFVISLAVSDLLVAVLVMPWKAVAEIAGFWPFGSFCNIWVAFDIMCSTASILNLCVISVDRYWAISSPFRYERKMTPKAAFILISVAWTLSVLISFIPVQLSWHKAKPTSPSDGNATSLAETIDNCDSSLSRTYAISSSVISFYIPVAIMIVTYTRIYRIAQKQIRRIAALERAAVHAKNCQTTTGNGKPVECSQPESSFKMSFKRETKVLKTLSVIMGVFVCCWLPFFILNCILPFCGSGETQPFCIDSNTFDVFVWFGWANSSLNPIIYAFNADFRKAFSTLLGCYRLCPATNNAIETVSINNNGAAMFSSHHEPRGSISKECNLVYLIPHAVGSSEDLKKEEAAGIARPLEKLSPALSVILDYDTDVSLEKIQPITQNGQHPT
Chain of Cannabinoid receptor 1 (P21554 whole entry): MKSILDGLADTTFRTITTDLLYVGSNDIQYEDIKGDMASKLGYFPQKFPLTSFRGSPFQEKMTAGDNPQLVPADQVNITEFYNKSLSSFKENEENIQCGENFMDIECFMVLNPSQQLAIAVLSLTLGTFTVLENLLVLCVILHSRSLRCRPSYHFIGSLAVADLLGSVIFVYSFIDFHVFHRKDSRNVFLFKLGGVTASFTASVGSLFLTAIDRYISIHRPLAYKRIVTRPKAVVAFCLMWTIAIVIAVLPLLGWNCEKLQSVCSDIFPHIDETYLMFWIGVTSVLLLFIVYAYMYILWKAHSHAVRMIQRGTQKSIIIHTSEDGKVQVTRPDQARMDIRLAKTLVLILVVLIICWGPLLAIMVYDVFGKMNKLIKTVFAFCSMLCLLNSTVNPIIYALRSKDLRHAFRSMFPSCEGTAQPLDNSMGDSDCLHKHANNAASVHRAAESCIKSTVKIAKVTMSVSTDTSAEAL

Consider `Cc1ccc(-n2nccn2)c(C(=O)N2CCN(c3nc4cc(Cl)ccc4o3)CC[C@H]2C)c1` [SUVOREXANT], for which the AC50 (in general, the midpoint of the concentration-response curve, whichever way the signal moves) in [1] is 22 µM; in [2] it was over 30 µM; in assay [3] it was over 30 µM; on D(1A) dopamine receptor, over 30 µM; in assay [4], over 10 µM; on Adenosine receptor A3 it was over 10 µM. Besides, the AC50 (in assay [5]; on Vasopressin V1a receptor; in assay [6]; on Melanocortin receptor 3; in assay [7]; at Vasopressin V2 receptor) was over 30 µM throughout. In addition, the AC50 is 26 µM in [8]; over 30 µM at Cannabinoid receptor 1; over 30 µM on D(3) dopamine receptor; over 30 µM in assay [9]; over 30 µM at Motilin receptor; over 30 µM in [10].

In the case of `COc1cc2c(N)nc(N3CCN(C(=O)OCC(C)(C)O)CC3)nc2c(OC)c1OC` [TRIMAZOSIN], the AC50 in assay [1] was 17 µM; in assay [2], over 30 µM; in [3], 13 µM; at D(1A) dopamine receptor, over 30 µM; in [4], over 30 µM; at Adenosine receptor A3, over 30 µM. Besides, the concentration at half-maximal activity (AC50) (in [5]; at Vasopressin V1a receptor; in [6]; on Melanocortin receptor 3; in [7]; at Vasopressin V2 receptor) was over 30 µM each time. In addition, the AC50 (in assay [8]; on Cannabinoid receptor 1; on D(3) dopamine receptor; in assay [9]; at Motilin receptor; in [10]) was over 30 µM each time.

For `C=CCN1CCCC1CNC(=O)c1cc(S(N)(=O)=O)cc(OC)c1OC` (configuration not stated) [VERALIPRIDE], the concentration at half-maximal activity (AC50) was 7.6 µM in assay [1]; over 30 µM in assay [2]; 10 µM in assay [3]; over 30 µM at D(1A) dopamine receptor; over 30 µM in assay [4]; over 30 µM on Adenosine receptor A3. Moreover, the half-maximal activity concentration (AC50) was over 30 µM in assay [5]; over 30 µM on Vasopressin V1a receptor; over 30 µM in assay [6]; over 30 µM on Melanocortin receptor 3; over 10 µM in [7]; over 30 µM at Vasopressin V2 receptor. The AC50 is 3.2 µM in assay [8]; over 30 µM on Cannabinoid receptor 1; 0.003 µM at D(3) dopamine receptor; 26 µM in [9]; over 30 µM on Motilin receptor; 25 µM in assay [10].

On to `O=C(NCCNCC(O)COc1ccc(O)cc1)N1CCOCC1` (configuration not stated) [XAMOTEROL], for which the AC50 (in [1]; in [2]; in assay [3]; at D(1A) dopamine receptor; in assay [4]; at Adenosine receptor A3) was over 30 µM each time. Moreover, the half-maximal activity concentration (AC50) (in assay [5]; at Vasopressin V1a receptor; in [6]; at Melanocortin receptor 3; in assay [7]; at Vasopressin V2 receptor) was over 30 µM each time. Also, the AC50 (in [8]; at Cannabinoid receptor 1; on D(3) dopamine receptor; in assay [9]; at Motilin receptor; in assay [10]) was over 30 µM throughout.
